The values below come from ChEMBL document CHEMBL1147845, “Rapid synthesis of sulfone derivatives as potential anti-infectious agents” (2007).

In brackets after ≈: the same amount, converted by molar mass. Activity calls are given as the source filed them. The rule behind the calls is not given here.

The test system of assay [1] is Staphylococcus aureus. The assay can be described thus: Antimicrobial activity against Staphylococcus aureus ATCC 6538 by broth microdilution method. The class given is functional. A general note: In broth dilution the organism is exposed to a series of concentrations in liquid medium.
The subject of assay [2] is Candida tropicalis. The assay can be described thus: Antimicrobial activity against Candida tropicalis IP 2031 by broth microdilution method. The class given is functional.
Assay [3] deals with Pseudomonas aeruginosa. The assay can be described thus: Antimicrobial activity against Pseudomonas aeruginosa ATCC 15442 by disk diffusion method. Format: functional, organism-based. Background: Agar diffusion results depend on both activity and mobility in agar.
Assay [4] concerns Escherichia coli. The assay is described as follows: Antimicrobial activity against Escherichia coli ATCC 10536 by disk diffusion method. Format: functional.
Assay [5] concerns Enterococcus hirae. The assay is described as follows: Antimicrobial activity against Enterococcus hirae ATCC 10541 by disk diffusion method. Format: functional, organism-based.
Assay [6] has as its system Candida albicans. The assay is described as follows: Antimicrobial activity against Candida albicans ATCC 90029 by disk diffusion method. The class given is functional, organism-based.
Assay [7] relates to Candida tropicalis. The assay is described as follows: Antimicrobial activity against Candida tropicalis IP 2031 by disk diffusion method. The class given is functional.
Assay [8] concerns Staphylococcus aureus. The assay is described as follows: Antimicrobial activity against Staphylococcus aureus ATCC 6538 by disk diffusion method. The class given is functional.
The subject of assay [9] is Pseudomonas aeruginosa. The assay is described as follows: Antimicrobial activity against Pseudomonas aeruginosa ATCC 15442 at 10 ug by disk diffusion method. Format: functional, organism-based.
For assay [10], the system named is Enterococcus hirae. The assay is described as follows: Antimicrobial activity against Enterococcus hirae ATCC 10541 at 10 ug by disk diffusion method. Format: functional, organism-based.
For assay [11], the system named is Escherichia coli. The assay is described as follows: Antimicrobial activity against Escherichia coli ATCC 10536 at 10 ug by disk diffusion method. The class given is functional, organism-based.
The subject of assay [12] is Staphylococcus aureus. The assay can be described thus: Antimicrobial activity against Staphylococcus aureus ATCC 6538 at 10 ug by disk diffusion method. Format: functional. To be noted: read-out: IZ.
Assay [13] relates to Candida albicans. The assay is described as follows: Antimicrobial activity against Candida albicans ATCC 90029 at 10 ug by disk diffusion method. The class given is functional, organism-based.
The test system of assay [14] is Candida tropicalis. The assay is described as follows: Antimicrobial activity against Candida tropicalis IP 2031 at 10 ug by disk diffusion method. The class given is functional, organism-based.
The test system of assay [15] is Candida tropicalis. The assay can be described thus: Antimicrobial activity against Candida tropicalis IP 2031 at 20 ug by disk diffusion method. Format: functional. To be noted: read-out: IZ.
In assay [16] the test system is Candida albicans. The assay can be described thus: Antimicrobial activity against Candida albicans ATCC 90029 at 20 ug by disk diffusion method. The class given is functional. To be noted: read-out: IZ.
In assay [17] the test system is Staphylococcus aureus. The assay is described as follows: Antimicrobial activity against Staphylococcus aureus ATCC 6538 at 20 ug by disk diffusion method. The class given is functional, organism-based.
For assay [18], the system named is Enterococcus hirae. The assay can be described thus: Antimicrobial activity against Enterococcus hirae ATCC 10541 at 20 ug by disk diffusion method. The class given is functional, organism-based.
The subject of assay [19] is Escherichia coli. The assay is described as follows: Antimicrobial activity against Escherichia coli ATCC 10536 at 20 ug by disk diffusion method. Format: functional, organism-based.
Assay [20] deals with Pseudomonas aeruginosa. The assay is described as follows: Antimicrobial activity against Pseudomonas aeruginosa ATCC 15442 at 20 ug by disk diffusion method. Format: functional, organism-based.
Assay [21] has as its system Pseudomonas aeruginosa. The assay can be described thus: Antimicrobial activity against Pseudomonas aeruginosa ATCC 15442 at 30 ug by disk diffusion method. Format: functional, organism-based.
Assay [22] deals with Staphylococcus aureus. The assay is described as follows: Antimicrobial activity against Staphylococcus aureus ATCC 6538 at 30 ug by disk diffusion method. The class given is functional, organism-based.
Assay [23] concerns Escherichia coli. The assay can be described thus: Antimicrobial activity against Escherichia coli ATCC 10536 at 30 ug by disk diffusion method. The class given is functional. To be noted: read-out: IZ.
The subject of assay [24] is Enterococcus hirae. The assay can be described thus: Antimicrobial activity against Enterococcus hirae ATCC 10541 at 30 ug by disk diffusion method. The class given is functional, organism-based.
In assay [25] the test system is Candida tropicalis. The assay is described as follows: Antimicrobial activity against Candida tropicalis IP 2031 at 30 ug by disk diffusion method. Format: functional, organism-based.
Assay [26] relates to Candida albicans. The assay can be described thus: Antimicrobial activity against Candida albicans ATCC 90029 at 30 ug by disk diffusion method. Format: functional, organism-based.

For `O=C(CS(=O)(=O)c1cccc2ccccc12)c1ccc([N+](=O)[O-])cc1`, the MIC in the assay on Staphylococcus aureus [1] and against Candida tropicalis [2] was over 100 µg/mL in each case. Moreover, the result in the assay on Pseudomonas aeruginosa [3], in the assay with Escherichia coli [4], in the assay on Enterococcus hirae [5] and in the assay with Candida albicans [6] was inactive. Moreover, the “inhibition zone (IZ)” value in the assay on Candida tropicalis [7] is on record as 12 mm; with Staphylococcus aureus [8], 10 mm.
As to `CN[C@@H]1[C@H](O[C@H]2[C@H](O[C@H]3[C@H](O)[C@@H](O)[C@H](N=C(N)N)[C@@H](O)[C@@H]3N=C(N)N)O[C@@H](C)[C@]2(O)C=O)O[C@@H](CO)[C@H](O)[C@H]1O` [STREPTOMYCIN], the outcome in the assay with Pseudomonas aeruginosa [9], in the assay on Enterococcus hirae [10], with Escherichia coli [11], with Candida albicans [13] and in the assay on Candida tropicalis [14] was inactive. In addition, the zone of inhibition at 10 µg/disc in the assay with Staphylococcus aureus [12] is 27 mm.
Take `OC(Cn1cncn1)(Cn1cncn1)c1ccc(F)cc1F` [FLUCONAZOLE]: the zone of inhibition at 20 µg/disc turned out to be 21 mm in the assay on Candida tropicalis [15] and 18 mm in the assay on Candida albicans [16]. Further, the outcome in the assay on Staphylococcus aureus [17], in the assay with Enterococcus hirae [18], in the assay on Escherichia coli [19] and in the assay on Pseudomonas aeruginosa [20] was inactive.
In the case of `Cc1ccc(S(=O)(=O)CC(=O)c2ccc([N+](=O)[O-])cc2)cc1`, the MIC in the assay with Staphylococcus aureus [1] and with Candida tropicalis [2] was over 100 µg/mL in each case. Moreover, the result in the assay with Pseudomonas aeruginosa [3], in the assay on Enterococcus hirae [5] and in the assay with Candida albicans [6] was inactive. Moreover, the “inhibition zone (IZ)” value in the assay with Escherichia coli [4] amounted to 12 mm; in the assay with Candida tropicalis [7] it was 22 mm; with Staphylococcus aureus [8], 11 mm.
With `O=C(N[C@H](CO)[C@H](O)c1ccc([N+](=O)[O-])cc1)C(Cl)Cl` [CHLORAMPHENICOL], the outcome with Pseudomonas aeruginosa [21], in the assay with Staphylococcus aureus [22], in the assay on Enterococcus hirae [24], in the assay with Candida tropicalis [25] and in the assay on Candida albicans [26] was inactive. Also, the zone of inhibition at 30 µg/disc with Escherichia coli [23] worked out at 34 mm.
As to `O=C(CS(=O)(=O)c1ccc(F)cc1)c1ccc([N+](=O)[O-])cc1`, the minimal inhibitory concentration (MIC) against Staphylococcus aureus [1] and with Candida tropicalis [2] was over 100 µg/mL each time. The result in the assay with Pseudomonas aeruginosa [3], with Escherichia coli [4], in the assay with Enterococcus hirae [5] and in the assay with Candida albicans [6] was inactive. Further, the “inhibition zone (IZ)” value was 19 mm in the assay with Candida tropicalis [7] and 25 mm in the assay with Staphylococcus aureus [8].
As to `O=C(CS(=O)(=O)c1ccc(I)cc1)c1ccc([N+](=O)[O-])cc1`, the MIC in the assay on Staphylococcus aureus [1] and against Candida tropicalis [2] was over 100 µg/mL throughout. In addition, the result in the assay with Pseudomonas aeruginosa [3], in the assay with Escherichia coli [4], in the assay on Enterococcus hirae [5], in the assay on Candida albicans [6] and with Candida tropicalis [7] was inactive. Besides, in the assay on Staphylococcus aureus [8], the “inhibition zone (IZ)” value is listed as 11 mm.
In the case of `O=C(CS(=O)(=O)c1ccc([N+](=O)[O-])cc1)c1ccc([N+](=O)[O-])cc1`, the MIC in the assay with Staphylococcus aureus [1] and in the assay with Candida tropicalis [2] was 100 µg/mL (≈ 285 µM) in each case. Further, the outcome in the assay on Pseudomonas aeruginosa [3], in the assay with Escherichia coli [4], in the assay on Enterococcus hirae [5] and in the assay on Candida albicans [6] was inactive. The “inhibition zone (IZ)” value turned out to be 12 mm with Candida tropicalis [7] and 28 mm in the assay with Staphylococcus aureus [8].
For `O=C(c1ccc([N+](=O)[O-])cc1)C(Cc1ccccc1)S(=O)(=O)c1ccccc1` (centres undefined), the result in the assay on Pseudomonas aeruginosa [3], with Escherichia coli [4], in the assay on Enterococcus hirae [5], in the assay on Candida albicans [6], in the assay with Candida tropicalis [7] and in the assay with Staphylococcus aureus [8] was inactive.
For `Nc1ccc(S(=O)(=O)c2ccc(N)cc2)cc1` [DAPSONE], the MIC against Staphylococcus aureus [1] and against Candida tropicalis [2] was over 100 µg/mL in each case.
On to `O=C(CS(=O)(=O)c1ccc(Cl)cc1)c1ccc([N+](=O)[O-])cc1`, for which the MIC in the assay on Staphylococcus aureus [1] and in the assay with Candida tropicalis [2] was 100 µg/mL (≈ 294 µM) each time. Further, the outcome in the assay with Pseudomonas aeruginosa [3], in the assay with Escherichia coli [4], in the assay with Enterococcus hirae [5] and in the assay on Candida albicans [6] was inactive. Moreover, the figures for the “inhibition zone (IZ)” value with Candida tropicalis [7] and with Staphylococcus aureus [8] were 19 mm and 24 mm, respectively.

A word on the MIC: it is the lowest concentration found to suppress growth. The low end stands for inhibition by little substance, the high end for a need for much substance.
